The record followed here is patent US10941157B2, “Pesticidal compositions and uses thereof” (Gilead Apollo, LLC, priority 2015, dated 2021).

≈ marks a conversion by molar mass, not a printed value.

What all share (type): cell-based
One assay relates to Botrtyis cinerea (Bc). Description: In vitro pathogen growth inhibition assay, Bc. Particulars: 48 h, ≥90% inhibition; 48 hours vs 2% DMSO control; read-out: Compound Concentration (ppm) sufficient for ≥90% inhibition of growth, Bc. Here is the method: (§1) A growth inhibition assay was conducted to determine the ability of compounds to control the growth of fungal pathogens, such as Botrtyis cinerea (Bc), Collectotrichum graminicola (Cg), Diplodia maydis (Dm), Fusarium moniliforme (Fm), Fusarium virguliforme (Fv), Phytophthora capsici (Pc), Rhizoctonia solani (Rs), and Septoria tritici (St). The compounds listed in Table 1 were each dissolved in DMSO at 2.5 mg/ml to produce compound stock solutions (“stocks”). […] Negative controls on each plate included 2% DMSO, water, and a blank (media+2% DMSO). Fungal spores were isolated from previously sub-cultured plates of Botrtyis cinerea (Bc), Collectotrichum graminicola (Cg), Diplodia maydis (Dm), Fusarium moniliforme (Fm), Fusarium virguliforme (Fv), Phytophthora capsici (Pc), and Septoria tritici (St). The isolated spores were diluted to individual concentrations with a 17% V8 liquid media. For Rhizoctonia solani (Rs), 1.5 mm mycelial plugs were used in place of spores and ¼ Potato Dextrose Broth (PDB) was used for dilution. The spore concentrations and plug sizes were based on growth curves generated at 48 hours for each pathogen. In a second 96-well plate, the spores or mycelial plugs, media, diluted compound solutions, and controls were combined. Once the compound was added, a true final concentration of compound in each well was measured by an OD600 reading, which adjusted for any compound precipitation that might have occurred in the well. Plate readings were repeated at both 24 and 48 hours. The blank negative control was used as a background subtraction. Additional visual ratings were performed at both 24 and 48 hours for checking on precipitation and confirming efficacy. […] Both tables list the concentration of each compound that was sufficient to ≥90% inhibition of growth for each of the fungal pathogens listed above. In addition, some of compounds were tested in a yeast growth inhibition assay for Saccharomyces cerevisiae (Sc). Table 2 lists the concentration of the tested compound that was sufficient to ≥75% inhibition of Saccharomyces cerevisiae (Sc).

The subject of assay [1] is Collectotrichum graminicola (Cg). Kind of assay: In vitro pathogen growth inhibition assay, Cg. Particulars: 48 h, ≥90% inhibition; 48 hours vs 2% DMSO control; read-out: Compound Concentration (ppm) sufficient for ≥90% inhibition of growth, Cg. Here is the method: as §1
The next assay deals with Diplodia maydis (Dm). Description: In vitro pathogen growth inhibition assay, Dm. The conditions noted are these: Stenocarpella maydis, 48 h, ≥90% inhibition; 48 hours vs 2% DMSO control; read-out: Compound Concentration (ppm) sufficient for ≥90% inhibition of growth, Dm. Here is the method: as §1
Assay [2] deals with Fusarium moniliforme (Fm). Kind of assay: In vitro pathogen growth inhibition assay, Fm. Particulars: Fusarium verticillioides; ≥90% inhibition; 48 hours vs 2% DMSO control; read-out: Compound Concentration (ppm) sufficient for ≥90% inhibition of growth, Fm. Here is the method: as §1
Assay [3] relates to Fusarium virguliforme (Fv). Kind of assay: In vitro pathogen growth inhibition assay, Fv. Particulars: ≥90% inhibition, 48 hours vs 2% DMSO control, read-out: Compound Concentration (ppm) sufficient for ≥90% inhibition of growth, Fv. Here is the method:
as §1

Assay [4] concerns Phytophthora capsici (Pc). Kind of assay: In vitro pathogen growth inhibition assay, Pc. The conditions noted are these: 48 h, ≥90% inhibition, 48 hours vs 2% DMSO control, read-out: Compound Concentration (ppm) sufficient for ≥90% inhibition of growth, Pc. Here is the method: as §1
A further assay has as its system Rhizoctonia solani (Rs). Description: In vitro pathogen growth inhibition assay, Rs (mycelial plugs). Particulars: Rhizoctonia solani, 48 h, ≥90% inhibition; mycelial plugs; 48 hours vs 2% DMSO control; read-out: Compound Concentration (ppm) sufficient for ≥90% inhibition of growth, Rs. Here is the method:
as §1

In another assay the test system is Septoria tritici (St). Kind of assay: In vitro pathogen growth inhibition assay, St. Particulars: Zymoseptoria tritici, 48 h, ≥90% inhibition; 48 hours vs 2% DMSO control; read-out: Compound Concentration (ppm) sufficient for ≥90% inhibition of growth, St. Here is the method: as §1

As for `COc1ccccc1[C@H](Cn1c(=O)n(C(C)(C)C(=O)NC2CCC2)c(=O)c2c(C)c(-n3nccn3)sc21)OC1CCOCC1` [Compound I-042], the IC90 was 0.4 µg/mL (≈ 0.642 µM) with Botrtyis cinerea (Bc); at least 0.4 µg/mL in assay [1]; at least 0.4 µg/mL in the assay on Diplodia maydis (Dm); 0.08 µg/mL (≈ 0.128 µM) in assay [2]; 0.4 µg/mL (≈ 0.642 µM) in assay [3]; at least 10 µg/mL in assay [4]. Besides, the IC90 in the assay on Rhizoctonia solani (Rs) is 0.08 µg/mL (≈ 0.128 µM); in the assay on Septoria tritici (St), at least 10 µg/mL.
As for `COc1ccccc1[C@H](Cn1c(=O)n(C(C)(C)C(=O)NC2CCCCC2)c(=O)c2c(C)c(-n3nccn3)sc21)OC1CCOCC1` [Compound I-043], the IC90 in the assay with Botrtyis cinerea (Bc) is 0.4 µg/mL (≈ 0.615 µM); in assay [1] it was over 2 µg/mL; in the assay with Diplodia maydis (Dm), 0.4 µg/mL (≈ 0.615 µM); in assay [2], 0.08 µg/mL (≈ 0.123 µM); in assay [3], 2 µg/mL (≈ 3.07 µM); in assay [4], over 10 µg/mL. For the same molecule, the IC90 was 0.4 µg/mL (≈ 0.615 µM) in the assay with Rhizoctonia solani (Rs) and over 10 µg/mL in the assay with Septoria tritici (St).
As to `COc1ccc(F)cc1[C@H](Cn1c(=O)n(C(C)(C)C(=O)N2CCCC2)c(=O)c2c(C)c(-n3cccn3)sc21)OC(C)C` [Compound I-044], the IC90 with Botrtyis cinerea (Bc) was 0.4 µg/mL (≈ 0.669 µM); in assay [1], 0.4 µg/mL (≈ 0.669 µM); in the assay on Diplodia maydis (Dm) it was 2 µg/mL (≈ 3.35 µM); in assay [2] it was 0.08 µg/mL (≈ 0.134 µM); in assay [3], 0.4 µg/mL (≈ 0.669 µM); in assay [4], over 50 µg/mL. For the same molecule, the figures for the IC90 in the assay on Rhizoctonia solani (Rs) and in the assay with Septoria tritici (St) were 0.4 µg/mL (≈ 0.669 µM) and over 50 µg/mL, respectively.
Take `COc1ccc(F)cc1[C@H](Cn1c(=O)n(C(C)(C)C(=O)N2CCCC2)c(=O)c2c(C)c(-n3cccn3)sc21)OC1CCOCC1` [Compound I-045]: the IC90 with Botrtyis cinerea (Bc) is 2 µg/mL (≈ 3.13 µM); in assay [1], at least 0.4 µg/mL; in the assay on Diplodia maydis (Dm), at least 2 µg/mL; in assay [2] it was 0.08 µg/mL (≈ 0.125 µM); in assay [3], 10 µg/mL (≈ 15.6 µM); in assay [4], over 50 µg/mL. Besides, the IC90 with Rhizoctonia solani (Rs) is 2 µg/mL (≈ 3.13 µM); in the assay with Septoria tritici (St), over 50 µg/mL.
Regarding `COc1ccccc1[C@H](Cn1c(=O)n(C(C)(C)C(=O)N2CCCC2)c(=O)c2c(C)c(-n3cccn3)sc21)OC(C)C` [Compound I-046], the IC90 was 2 µg/mL (≈ 3.45 µM) in the assay on Botrtyis cinerea (Bc); 2 µg/mL (≈ 3.45 µM) in assay [1]; 2 µg/mL (≈ 3.45 µM) in the assay with Diplodia maydis (Dm); 0.08 µg/mL (≈ 0.138 µM) in assay [2]; 0.4 µg/mL (≈ 0.69 µM) in assay [3]; over 50 µg/mL in assay [4]. Further, the IC90 is 0.4 µg/mL (≈ 0.69 µM) in the assay with Rhizoctonia solani (Rs) and at least 50 µg/mL in the assay on Septoria tritici (St).
Regarding `COc1ccccc1[C@H](Cn1c(=O)n(C(C)(C)C(=O)N2CCCCC2)c(=O)c2c(C)c(-n3cccn3)sc21)OC(C)C` [Compound I-047], the IC90 is 0.4 µg/mL (≈ 0.674 µM) with Botrtyis cinerea (Bc); at least 2 µg/mL in assay [1]; 2 µg/mL (≈ 3.37 µM) in the assay on Diplodia maydis (Dm); 0.08 µg/mL (≈ 0.135 µM) in assay [2]; 0.4 µg/mL (≈ 0.674 µM) in assay [3]; over 50 µg/mL in assay [4]. For the same molecule, the IC90 is 2 µg/mL (≈ 3.37 µM) in the assay on Rhizoctonia solani (Rs) and over 50 µg/mL in the assay on Septoria tritici (St).
On to `COc1ccc(F)cc1[C@H](Cn1c(=O)n(C(C)(C)C(=O)NC(C)C)c(=O)c2c(C)c(-n3cccn3)sc21)OC1CCC(=O)CC1` [Compound I-048], for which the IC90 with Botrtyis cinerea (Bc) was 0.4 µg/mL (≈ 0.625 µM); in assay [1], 10 µg/mL (≈ 15.6 µM); in the assay with Diplodia maydis (Dm), 2 µg/mL (≈ 3.13 µM); in assay [2] it was 0.08 µg/mL (≈ 0.125 µM); in assay [3], 2 µg/mL (≈ 3.13 µM); in assay [4], over 50 µg/mL. Besides, the IC90 was 2 µg/mL (≈ 3.13 µM) with Rhizoctonia solani (Rs) and over 50 µg/mL with Septoria tritici (St).
Turning to `COc1ccc(F)cc1[C@H](Cn1c(=O)n(C(C)(C)C(=O)NC(C)C)c(=O)c2c(C)c(-n3cccn3)sc21)O[C@H]1CC[C@@H](O)CC1` [Compound I-049], the IC90 in the assay on Botrtyis cinerea (Bc) was 0.4 µg/mL (≈ 0.623 µM); in assay [1] it was 50 µg/mL (≈ 77.9 µM); in the assay with Diplodia maydis (Dm) it was 2 µg/mL (≈ 3.12 µM); in assay [2], 0.08 µg/mL (≈ 0.125 µM); in assay [3] it was 2 µg/mL (≈ 3.12 µM); in assay [4] it was over 50 µg/mL. In addition, the IC90 with Rhizoctonia solani (Rs) was 2 µg/mL (≈ 3.12 µM); in the assay with Septoria tritici (St), over 50 µg/mL.
As to `COc1ccc(F)cc1[C@H](Cn1c(=O)n(C(C)(C)C(=O)NC(C)C)c(=O)c2c(C)c(-n3nccn3)sc21)OC1CCC(=O)CC1` [Compound I-050], the IC90 in the assay on Botrtyis cinerea (Bc) was 0.08 µg/mL (≈ 0.125 µM); in assay [1], 2 µg/mL (≈ 3.12 µM); with Diplodia maydis (Dm), at least 0.08 µg/mL; in assay [2], 0.08 µg/mL (≈ 0.125 µM); in assay [3] it was 0.4 µg/mL (≈ 0.624 µM); in assay [4], 50 µg/mL (≈ 78 µM). Besides, the IC90 is 0.08 µg/mL (≈ 0.125 µM) with Rhizoctonia solani (Rs) and over 50 µg/mL in the assay on Septoria tritici (St).
